Test results published in patent publication US9301951B2 (Ardelyx, Inc., priority 2010, dated 2016).

Tests used:
rat NaP2b (SLC34A2) = target: T1, rat NaP2b (SLC34A2) (Rattus norvegicus, UniProt Q9JJ09); assay: Inhibition of NaP2b-mediated Pi (33P) uptake in transfected HEK293 cells, rat NaP2b; assay type: cell-based; conditions: HEK293 cells transfected with rat NaP2b, 100 uM phosphate, 0.1 nM to 30 uM, read-out: pIC50 range for rat Nap2b (converted)
T1 construct: host or cells: HEK293
T1 sequence (Q9JJ09 1-695): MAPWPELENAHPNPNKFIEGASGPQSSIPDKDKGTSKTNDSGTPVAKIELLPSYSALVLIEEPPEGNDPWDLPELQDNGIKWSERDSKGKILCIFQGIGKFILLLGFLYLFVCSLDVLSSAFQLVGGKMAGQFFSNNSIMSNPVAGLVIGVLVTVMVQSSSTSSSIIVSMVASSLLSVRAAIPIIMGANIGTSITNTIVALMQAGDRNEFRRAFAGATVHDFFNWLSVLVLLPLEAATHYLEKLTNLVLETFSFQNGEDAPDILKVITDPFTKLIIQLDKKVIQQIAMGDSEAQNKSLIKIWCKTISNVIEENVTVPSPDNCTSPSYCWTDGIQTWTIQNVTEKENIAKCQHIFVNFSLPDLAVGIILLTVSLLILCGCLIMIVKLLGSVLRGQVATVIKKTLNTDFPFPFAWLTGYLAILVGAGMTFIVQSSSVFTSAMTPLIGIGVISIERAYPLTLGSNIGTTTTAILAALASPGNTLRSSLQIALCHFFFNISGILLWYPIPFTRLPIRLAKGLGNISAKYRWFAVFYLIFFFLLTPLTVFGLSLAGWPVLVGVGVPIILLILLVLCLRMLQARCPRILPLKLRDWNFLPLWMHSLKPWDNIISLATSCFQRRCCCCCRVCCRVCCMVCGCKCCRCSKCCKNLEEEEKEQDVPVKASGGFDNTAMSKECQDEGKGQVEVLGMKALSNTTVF
Method in brief: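 HEK293 cells transiently transfected with rat NaP2b; 33P-phosphate uptake measured in sodium or choline buffer (100 uM KH2PO4, PiT-silencing agent, pH 7.4) with compound at twelve concentrations, 0.1 nM–30 uM, in duplicate. Lysed cells counted by scintillation; pIC50 derived from concentration-response.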

human NaP2b (SLC34A2) = target: T2, human NaP2b (SLC34A2) (Homo sapiens, UniProt O95436); assay: Inhibition of NaP2b-mediated Pi (33P) uptake in transfected HEK293 cells, human NaP2b; assay type: cell-based; conditions: HEK293 cells transfected with human NaP2b, 100 uM phosphate, 0.1 nM to 30 uM, read-out: pIC50 range for human NaP2b (converted)
T2 construct: host or cells: HEK293
T2 sequence (O95436 1-690): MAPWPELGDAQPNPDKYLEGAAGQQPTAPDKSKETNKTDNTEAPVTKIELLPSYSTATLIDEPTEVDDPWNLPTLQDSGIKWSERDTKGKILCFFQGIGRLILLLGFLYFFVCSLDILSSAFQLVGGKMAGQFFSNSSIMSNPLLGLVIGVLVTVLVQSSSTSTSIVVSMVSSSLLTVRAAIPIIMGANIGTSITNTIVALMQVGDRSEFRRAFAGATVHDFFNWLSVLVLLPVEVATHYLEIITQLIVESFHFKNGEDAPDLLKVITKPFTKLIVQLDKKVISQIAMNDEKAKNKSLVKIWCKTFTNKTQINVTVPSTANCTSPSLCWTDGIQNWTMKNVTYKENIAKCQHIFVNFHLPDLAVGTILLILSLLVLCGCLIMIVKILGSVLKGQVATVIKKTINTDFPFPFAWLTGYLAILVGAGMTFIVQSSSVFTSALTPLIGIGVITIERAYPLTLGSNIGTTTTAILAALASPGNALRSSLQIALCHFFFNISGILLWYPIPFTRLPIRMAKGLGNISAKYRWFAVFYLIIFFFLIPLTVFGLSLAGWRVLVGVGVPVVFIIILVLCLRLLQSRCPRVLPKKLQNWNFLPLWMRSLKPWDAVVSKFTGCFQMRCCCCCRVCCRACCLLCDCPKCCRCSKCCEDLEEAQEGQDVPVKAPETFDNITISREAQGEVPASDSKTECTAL
Method in brief: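 HEK293 cells transiently expressing mutated human NaP2b, with PiT transport pharmacologically silenced; sodium-dependent 33P-phosphate uptake (100 uM KH2PO4, pH 7.4) measured over 3–30 min at room temperature by scintillation. Twelve compound concentrations from 0.1 nM to 30 uM, in duplicate; pIC50 calculated.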

Row | SMILES | IC50 (rat NaP2b (SLC34A2)) [nM] | IC50 (human NaP2b (SLC34A2)) [nM]
1 | O=C(O)CCSCc1cccc(C(=O)Nc2ccc(N3CCCCC3)cc2-c2cc(C(=O)NCc3cccc(C(F)(F)F)c3)ccn2)c1 [Example 1.1, 3-(3-((2-(4-((3-(trifluoromethyl)benzyl)carbamoyl)pyridin-2-yl)-4-(piperidin-1-yl)phenyl)carbamoyl)-benzylthio)propanoic acid] | 1000 to 7940 | 1000 to 7940
2 | CCN(CC)c1ccc(NC(=O)c2cccc(C(=O)N(C)CCN3CCOCC3)c2)c(-c2cc(C(=O)NCc3cccc(C(F)(F)F)c3)ccn2)c1 [Example 25, N1-(4-(Diethylamino)-2-(4-((3-(trifluoromethyl)benzyl)carbamoyl)pyridin-2-yl)phenyl)-N3-methyl-N3-(2-morpholinoethyl)isophthalamide] | < 1000 | < 1000
